Like-named read-outs stand apart in the source and are kept apart here. Where a SMILES comes first, the peptide text is derived from it. The star is where a group is joined. Cbz = O=C(OCc1ccccc1)*
What was measured:
[1] = tested on: human iPSC neurons and astrocytes treated with 5 μM sAβ42s; test: Focused small molecule screen, double culture (neuron, astrocyte), rescue from sAβ42s toxicity, high content imaging; format: cell-based; details: double culture, 5 μM sAβ42s; for percent rescue from sAβ42s toxicity at 6.25 µM / percent rescue from sAβ42s toxicity at 12.5 µM / percent rescue from sAβ42s toxicity at 25 µM / percent rescue from sAβ42s toxicity at 50 µM: Homo sapiens, iPSC
Protocol: (§1) FIGS. 11A-11D show synapse % rescue versus MAP2% rescue (FIGS. 11A-11B) and beta III tubulin % rescue versus MAP2% rescue (FIGS. 11C-11D), in neurons and astrocytes (FIGS. 11A and 11C) or neurons, astrocytes, and microglia (FIGS. 11B and 11D) treated with 5 μM sAβ42s and small molecules from a focused screen of known neuroprotective agents at multiple concentrations (50 μM, 25 μM, 12.5 μM and 6.25 μM (double culture), 50 μM, 12.5 μM, 3.1 μM and 0.78 μM (triple culture). Small molecules that prevented toxicity in dendrites (MAP2), synapses (Synapsin 1/2), cell count (CUX2), or axons ([…]) at or above 30% were considered hits (red dotted line).
Neurons from both NSC lines were evaluated by immunofluorescence staining. Briefly, cells were fixed with 4% PFA and 4% sucrose at room temperature for 20 minutes using Bravo automation. Fixed cells were then washed 2 times with PBS using Biotek 406 microplate washer (Beckman Coulter), followed by permeabilization and blocking by incubation with a solution containing 1×PBS, 0.1% Triton X-100, 2% donkey serum, and 1% BSA at room temperature for 30 minutes. Blocking solution was removed and cells were incubated with primary antibodies in blocking solution overnight at 4° C. After washing 6 times with PBS on Biotek 406 cell plate washer (Beckman Coulter), cells were then incubated with fluorophore-conjugated secondary antibodies for 1 hour at room temperature in the dark to avoid photobleaching. Cells were then washed 6 more times in with PBS before imaging. Fluorescent images were captured using IN Cell 6000 confocal microscope (GE Healthcare Life Sciences). The image analysis was performed with IN Cell 6000 analysis software.
Prior to experimentation, media volume in wells containing neurons was equalized with liquid handling automation (Bravo) in order to ensure precise control of concentrations. All Aβ42 oligomers, anti-Aβ, small molecules, inflammatory cytokines were prepared at 10× concentration and added to Neuronal Culture Media at an appropriate volume. For the repeated dosing experiments, the media were refreshed 50% at each dosing first, before adding Aβ42 oligomers, and/or anti-Aβ antibody at the specified final concentration.
(§2) In double (neuron, astrocyte) and triple (neuron, astrocyte, microglia) cultures, each small molecule listed in Table 1 was tested in the AD model paradigm at up to four concentrations. Molecules that characterized ≥30% rescue in any of the four measurements of dendrites area (MAP2), synapses count (synapsin 1/2), or cell count (CUX2), or axon area (Beta III Tubulin; “BT3”)) were classified as hits (FIGS. 11A-11D, Table 2, and Table 3).

[2] = tested on: human iPSC neurons, astrocytes and microglia treated with 5 μM sAβ42s; test: Focused small molecule screen, triple culture (neuron, astrocyte, microglia), rescue from sAβ42s toxicity; format: cell-based; details: for percent rescue from sAβ42s toxicity at 12.5 µM / percent rescue from sAβ42s toxicity at 50 µM / percent rescue from sAβ42s toxicity at 0.78 µM / percent rescue from sAβ42s toxicity at 3.13 µM: Homo sapiens, iPSC; for percent rescue from sAβ42s toxicity at 0.78 µM: 0.78 μM compound
Protocol: as §1
Frozen cells were thawed and immediately seeded at a density of 8,000 cells/well of a 384-well plate onto 8-week old neuron-astrocyte co-culture in Microglia media (BrainPhys™ neuronal media (Stem Cell Technologies) supplemented with 1× B27 with vitamin A, 1×N2 Plus Media Supplement (R&D Systems), 20 ng/mL BDNF, 20 ng/mL GDNF, 1 mM creatine, 200 nM L-ascorbic acid, 1 μg/mL mouse laminin, 0.5 mM GlutaMAX™ (Thermofisher), 0.5× penicillin-streptomycin, 1× normocin, 5 ng/mL TGF-β, 100 ng/mL human IL-34, 1.5 μg/mL cholesterol, 1 ng/mL gondoic acid, 100 ng/mL oleic acid, 460 μM thioglycerol, 1× insulin-transferrin-selenium, 25 ng/mL rhM-CSF, 5.4 μg/mL human insulin solution).
as §2

[3] = 6.25 μM compound, read-out: % B3T rescue
[4] = 6.25 μM compound, read-out: % Cux2 rescue
[5] = 6.25 μM compound, read-out: % MAP2 rescue
[6] = 6.25 μM compound, read-out: % Synapse rescue
[7] = 25 μM compound, read-out: % B3T rescue
[8] = 25 μM compound, read-out: % Cux2 rescue
[9] = 25 μM compound, read-out: % MAP2 rescue
[10] = 25 μM compound, read-out: % Synapse rescue
[11] = 50 μM compound, read-out: % B3T rescue
[12] = 50 μM compound, read-out: % Cux2 rescue
[13] = 50 μM compound, read-out: % MAP2 rescue
[14] = 50 μM compound, read-out: % Synapse rescue
[15] = 12.50 μM compound, read-out: % B3T rescue
[16] = 12.50 μM compound, read-out: % MAP2 rescue
[17] = 12.50 μM compound, read-out: % Synapse rescue
[18] = 50.00 μM compound, read-out: % B3T rescue
[19] = 50.00 μM compound, read-out: % MAP2 rescue
[20] = 50.00 μM compound, read-out: % Synapse rescue

With `CC(C)C[C@@H](C=O)NC(=O)[C@H](CC(C)C)NC(=O)[C@H](CC(C)C)NC(=O)OCc1ccccc1` [MG-132] (Cbz-Leu-Leu-Leu-aldehyde) the percent rescue from sAβ42s toxicity at 6.25 µM [1, 3] was -3%, the percent rescue from sAβ42s toxicity at 6.25 µM [1, 4] was 80% and the percent rescue from sAβ42s toxicity at 6.25 µM [1, 5] was 18%. The percent rescue from sAβ42s toxicity at 6.25 µM [1, 6] was -6%, the percent rescue from sAβ42s toxicity at 12.5 µM ([1]; 12.5 μM compound, read-out: % B3T rescue) was 7% and the percent rescue from sAβ42s toxicity at 12.5 µM ([1]; 12.5 μM compound, read-out: % Cux2 rescue) was 87%. The percent rescue from sAβ42s toxicity at 12.5 µM ([1]; 12.5 μM compound, read-out: % MAP2 rescue) was 24%, the percent rescue from sAβ42s toxicity at 12.5 µM ([1]; 12.5 μM compound, read-out: % Synapse rescue) was 4% and the percent rescue from sAβ42s toxicity at 25 µM [1, 7] was 30%. The percent rescue from sAβ42s toxicity at 25 µM [1, 8] was 91%, the percent rescue from sAβ42s toxicity at 25 µM [1, 9] was 26% and the percent rescue from sAβ42s toxicity at 25 µM [1, 10] was 8%. It also gave a percent rescue from sAβ42s toxicity at 50 µM [1, 11] of 57%, a percent rescue from sAβ42s toxicity at 50 µM [1, 12] of 90% and a percent rescue from sAβ42s toxicity at 50 µM [1, 13] of 25%. The percent rescue from sAβ42s toxicity at 50 µM [1, 14] was 4%, the percent rescue from sAβ42s toxicity at 12.5 µM [2, 15] was 35% and the percent rescue from sAβ42s toxicity at 12.5 µM [2, 16] was 18%. The percent rescue from sAβ42s toxicity at 12.5 µM [2, 17] was -7%, the percent rescue from sAβ42s toxicity at 50 µM [2, 18] was 46% and the percent rescue from sAβ42s toxicity at 50 µM [2, 19] was 25%. The percent rescue from sAβ42s toxicity at 50 µM [2, 20] was -11%.
With `N#Cc1ccnc(Nc2cc(C3CCN(C4COC4)CC3)cc(N3CCC(F)(F)C3)n2)c1` [GNE-3511] the percent rescue from sAβ42s toxicity at 6.25 µM [1, 3] was 15%, the percent rescue from sAβ42s toxicity at 6.25 µM [1, 4] was 18% and the percent rescue from sAβ42s toxicity at 6.25 µM [1, 5] was 32%. For the same molecule, the percent rescue from sAβ42s toxicity at 6.25 µM [1, 6] was 7%, the percent rescue from sAβ42s toxicity at 25 µM [1, 7] was 17% and the percent rescue from sAβ42s toxicity at 25 µM [1, 8] was 36%. The percent rescue from sAβ42s toxicity at 25 µM [1, 9] was 49%, the percent rescue from sAβ42s toxicity at 25 µM [1, 10] was 14% and the percent rescue from sAβ42s toxicity at 50 µM [1, 11] was 58%. For the same molecule, the percent rescue from sAβ42s toxicity at 50 µM [1, 12] was 81%, the percent rescue from sAβ42s toxicity at 50 µM [1, 13] was 87% and the percent rescue from sAβ42s toxicity at 50 µM [1, 14] was 47%. The percent rescue from sAβ42s toxicity at 0.78 µM ([2]; read-out: % B3T rescue) was 85%, the percent rescue from sAβ42s toxicity at 0.78 µM ([2]; read-out: % MAP2 rescue) was 91% and the percent rescue from sAβ42s toxicity at 0.78 µM ([2]; read-out: % Synapse rescue) was 79%. For the same molecule, the percent rescue from sAβ42s toxicity at 3.13 µM ([2]; 3.13 μM compound, read-out: % B3T rescue) was 81%, the percent rescue from sAβ42s toxicity at 3.13 µM ([2]; 3.13 μM compound, read-out: % MAP2 rescue) was 95% and the percent rescue from sAβ42s toxicity at 3.13 µM ([2]; 3.13 μM compound, read-out: % Synapse rescue) was 77%. The percent rescue from sAβ42s toxicity at 12.5 µM [2, 15] was 82%, the percent rescue from sAβ42s toxicity at 12.5 µM [2, 16] was 102% and the percent rescue from sAβ42s toxicity at 12.5 µM [2, 17] was 81%. It also gave a percent rescue from sAβ42s toxicity at 50 µM [2, 18] of 65%, a percent rescue from sAβ42s toxicity at 50 µM [2, 19] of 66% and a percent rescue from sAβ42s toxicity at 50 µM [2, 20] of 56%.
For `COC(=O)C1(C)c2[nH]c3ccccc3c2CCN1C(=O)CCl` (centres unmarked) [PDI Inhibitor 16F16], the “% B3T rescue” value ([1]; 6.25 μM compound) was 27%, the “% Cux2 rescue” value ([1]; 6.25 μM compound) was 46% and the “% MAP2 rescue” value ([1]; 6.25 μM compound) was 6%. For the same molecule, the “% Synapse rescue” value ([1]; 6.25 μM compound) was 5%, the “% B3T rescue” value ([1]; 12.5 μM compound) was 3% and the “% Cux2 rescue” value ([1]; 12.5 μM compound) was 45%. The “% MAP2 rescue” value ([1]; 12.5 μM compound) was 1%, the “% Synapse rescue” value ([1]; 12.5 μM compound) was −1% and the “% B3T rescue” value ([1]; 25 μM compound) was −46%. For the same molecule, the “% Cux2 rescue” value ([1]; 25 μM compound) was 66%, the “% MAP2 rescue” value ([1]; 25 μM compound) was −10% and the “% Synapse rescue” value ([1]; 25 μM compound) was −8%. For the same molecule, the “% B3T rescue” value ([1]; 50 μM compound) was −22%, the “% Cux2 rescue” value ([1]; 50 μM compound) was 34% and the “% MAP2 rescue” value ([1]; 50 μM compound) was −12%. The “% Synapse rescue” value ([1]; 50 μM compound) was −13%, the “% B3T rescue” value ([2]; 3.13 μM compound) was 71% and the “% MAP2 rescue” value ([2]; 3.13 μM compound) was 44%. For the same molecule, the “% Synapse rescue” value ([2]; 3.13 μM compound) was 43%, the “% B3T rescue” value ([2]; 12.50 μM compound) was 43% and the “% MAP2 rescue” value ([2]; 12.50 μM compound) was −6%. For the same molecule, the “% Synapse rescue” value ([2]; 12.50 μM compound) was 8%, the “% B3T rescue” value ([2]; 50.00 μM compound) was 42% and the “% MAP2 rescue” value ([2]; 50.00 μM compound) was −5%. For the same molecule, the “% Synapse rescue” value ([2]; 50.00 μM compound) was −1%.
For `Cc1ccc(S(=O)(=O)/C=C/C#N)cc1` [BAY 11-7082], the “% B3T rescue” value ([1]; 6.25 μM compound) was 38%, the “% Cux2 rescue” value ([1]; 6.25 μM compound) was 70% and the “% MAP2 rescue” value ([1]; 6.25 μM compound) was 34%. For the same molecule, the “% Synapse rescue” value ([1]; 6.25 μM compound) was −2%, the “% B3T rescue” value ([1]; 12.5 μM compound) was 31% and the “% Cux2 rescue” value ([1]; 12.5 μM compound) was 85%. The “% MAP2 rescue” value ([1]; 12.5 μM compound) was 36%, the “% Synapse rescue” value ([1]; 12.5 μM compound) was −3% and the “% B3T rescue” value ([1]; 25 μM compound) was 14%. For the same molecule, the “% Cux2 rescue” value ([1]; 25 μM compound) was 82%, the “% MAP2 rescue” value ([1]; 25 μM compound) was 17% and the “% Synapse rescue” value ([1]; 25 μM compound) was −13%. For the same molecule, the “% B3T rescue” value ([2]; 50.00 μM compound) was 44%, the “% MAP2 rescue” value ([2]; 50.00 μM compound) was 21% and the “% Synapse rescue” value ([2]; 50.00 μM compound) was −1%.

— patent US20230014181A1, “CULTURE SYSTEM AND METHODS FOR IMPROVED MODELING OF NEUROLOGICAL CONDITIONS” (Genentech, Inc., priority 2021, published 2023)
